# Assay results: ChEMBL document CHEMBL6071168, “Discovery of novel fructose-1,6-bisphosphatase inhibitors bearing benzimidazole scaffold using a dual-ligand molecular docking model” (Eur J Med Chem, 2024)
# pIC50: −log10 of the molar value. Active and inactive are the calls of the source. No cut-off for these calls is given here.
# Experiments:
# Homo sapiens = species on record: Homo sapiens; assay: Inhibition of Fructose-1,6-bisphosphatase (unknown origin) preincubated for 10 min followed by addition of NADP+, PGI,G6PDH at 10 uM measured after 40 min by absorption based analysis relative to control; conditions: time 50.0 min
# [1] = Inhibition of Fructose-1,6-bisphosphatase (unknown origin) preincubated for 10 min followed by addition of NADP+, PGI,G6PDH and measured after 40 min by absorption based analysis; design: species or system Homo sapiens
# [2] = Inhibition of Fructose-1,6-bisphosphatase (unknown origin); design: species or system Homo sapiens
# [3] = AUC (0 to t) in ICR mouse at 5 mg/kg, iv by HPLC-MS/MS analysis; assay type: ADME, organism-based; conditions: in vivo
# [4] = AUC (0 to infinity) in ICR mouse at 5 mg/kg, iv by HPLC-MS/MS analysis; assay type: ADME, organism-based; conditions: in vivo
# [5] = MRT (0 to t) in ICR mouse at 5 mg/kg, iv by HPLC-MS/MS analysis; assay type: ADME, organism-based; conditions: in vivo
# [6] = MRT (0 to infinity) in ICR mouse at 5 mg/kg, iv by HPLC-MS/MS analysis; assay type: ADME, organism-based; conditions: in vivo
# [7] = Half life in ICR mouse at 5 mg/kg, iv by HPLC-MS/MS analysis; assay type: ADME, organism-based; conditions: in vivo
# [8] = Tmax in ICR mouse at 5 mg/kg, iv by HPLC-MS/MS analysis; assay type: ADME, organism-based; conditions: in vivo
# [9] = Cmax in ICR mouse at 5 mg/kg, iv by HPLC-MS/MS analysis; assay type: ADME, organism-based; conditions: in vivo
# [10] = Apparent volume of distribution in ICR mouse at 5 mg/kg, iv by HPLC-MS/MS analysis; assay type: ADME, organism-based; conditions: in vivo, read-out: Vz
# [11] = Clearance in ICR mouse at 5 mg/kg, iv by HPLC-MS/MS analysis; assay type: ADME, organism-based; conditions: in vivo
# [12] = AUC (0 to t) in ICR mouse at 100 mg/kg, po by HPLC-MS/MS analysis; assay type: ADME, organism-based; conditions: in vivo
# [13] = AUC (0 to infinity) in ICR mouse at 100 mg/kg, po by HPLC-MS/MS analysis; assay type: ADME, organism-based; conditions: in vivo
# [14] = MRT (0 to t) in ICR mouse at 100 mg/kg, po by HPLC-MS/MS analysis; assay type: ADME, organism-based; conditions: in vivo
# [15] = MRT (0 to infinity) in ICR mouse at 100 mg/kg, po by HPLC-MS/MS analysis; assay type: ADME, organism-based; conditions: in vivo
# [16] = Half life in ICR mouse at 100 mg/kg, po by HPLC-MS/MS analysis; assay type: ADME, organism-based; conditions: in vivo
# [17] = Tmax in ICR mouse at 100 mg/kg, po by HPLC-MS/MS analysis; assay type: ADME, organism-based; conditions: in vivo
# [18] = Cmax in ICR mouse at 100 mg/kg, po by HPLC-MS/MS analysis; assay type: ADME, organism-based; conditions: in vivo
# [19] = Apparent volume of distribution in ICR mouse at 100 mg/kg, po by HPLC-MS/MS analysis; assay type: ADME, organism-based; conditions: in vivo
# [20] = Clearance in ICR mouse at 100 mg/kg, po by HPLC-MS/MS analysis; assay type: ADME, organism-based; conditions: in vivo
# [21] = Oral Bioavailability in ICR mouse at 100 mg/kg by HPLC-MS/MS analysis; assay type: ADME, organism-based; conditions: in vivo
# Cytochrome P450 1A2 = target: T1, Cytochrome P450 1A2 (Homo sapiens, UniProt P05177); assay: Inhibition of CYP1A2 (unknown origin) incubated for 30 min in presence of NADPH by LC-MS/MS analysis; assay type: ADME
# T1 sequence (P05177 whole entry): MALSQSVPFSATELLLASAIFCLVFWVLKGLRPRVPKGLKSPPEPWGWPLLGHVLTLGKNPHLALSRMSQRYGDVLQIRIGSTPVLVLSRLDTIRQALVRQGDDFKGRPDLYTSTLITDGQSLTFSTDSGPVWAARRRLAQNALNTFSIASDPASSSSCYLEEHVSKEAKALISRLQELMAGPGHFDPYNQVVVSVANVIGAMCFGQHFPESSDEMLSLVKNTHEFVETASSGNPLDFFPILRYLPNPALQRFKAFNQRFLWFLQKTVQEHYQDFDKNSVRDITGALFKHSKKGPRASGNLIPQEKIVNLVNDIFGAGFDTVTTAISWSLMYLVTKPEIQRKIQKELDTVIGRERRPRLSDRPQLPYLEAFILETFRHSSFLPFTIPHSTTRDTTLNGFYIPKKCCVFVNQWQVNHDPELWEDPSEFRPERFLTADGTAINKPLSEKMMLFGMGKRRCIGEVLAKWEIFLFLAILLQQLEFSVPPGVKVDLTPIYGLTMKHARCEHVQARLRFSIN
# Cytochrome P450 2C9 = Cytochrome P450 2C9 (Homo sapiens, UniProt P11712); assay: Inhibition of CYP2C9 (unknown origin) incubated for 30 min in presence of NADPH by LC-MS/MS analysis; assay type: ADME
# Cytochrome P450 2C9, sequence (P11712 whole entry): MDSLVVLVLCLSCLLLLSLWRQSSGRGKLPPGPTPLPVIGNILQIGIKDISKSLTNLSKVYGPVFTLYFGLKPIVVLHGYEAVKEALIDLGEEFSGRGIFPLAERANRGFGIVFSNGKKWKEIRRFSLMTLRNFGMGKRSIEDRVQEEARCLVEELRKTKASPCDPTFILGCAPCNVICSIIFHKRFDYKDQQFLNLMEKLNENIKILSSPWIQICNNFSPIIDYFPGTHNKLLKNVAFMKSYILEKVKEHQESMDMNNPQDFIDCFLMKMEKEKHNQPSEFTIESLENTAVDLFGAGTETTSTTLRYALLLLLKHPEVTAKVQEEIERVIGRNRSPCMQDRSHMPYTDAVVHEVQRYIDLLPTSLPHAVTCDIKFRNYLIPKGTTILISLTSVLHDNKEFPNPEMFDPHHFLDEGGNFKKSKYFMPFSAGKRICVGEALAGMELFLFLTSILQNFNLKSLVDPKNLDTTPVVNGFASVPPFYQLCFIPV
# Cytochrome P450 2C19 = Cytochrome P450 2C19 (Homo sapiens, UniProt P33261); assay: Inhibition of CYP2C19 (unknown origin) incubated for 30 min in presence of NADPH by LC-MS/MS analysis; assay type: ADME
# Cytochrome P450 2C19, sequence (P33261 whole entry): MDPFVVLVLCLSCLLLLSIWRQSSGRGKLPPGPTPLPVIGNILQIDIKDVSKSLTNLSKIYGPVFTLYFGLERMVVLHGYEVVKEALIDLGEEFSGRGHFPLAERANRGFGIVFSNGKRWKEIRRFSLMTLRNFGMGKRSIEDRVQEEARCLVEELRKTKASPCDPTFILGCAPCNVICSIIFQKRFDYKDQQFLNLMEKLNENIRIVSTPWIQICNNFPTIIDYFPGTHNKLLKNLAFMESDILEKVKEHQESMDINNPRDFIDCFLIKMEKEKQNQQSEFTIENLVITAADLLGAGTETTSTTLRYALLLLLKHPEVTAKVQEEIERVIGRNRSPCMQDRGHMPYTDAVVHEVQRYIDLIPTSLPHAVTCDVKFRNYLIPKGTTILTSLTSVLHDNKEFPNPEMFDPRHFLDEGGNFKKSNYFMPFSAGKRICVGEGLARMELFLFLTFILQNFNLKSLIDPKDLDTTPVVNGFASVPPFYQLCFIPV
# Cytochrome P450 2D6 = Cytochrome P450 2D6 (Homo sapiens, UniProt P10635); assay: Inhibition of CYP2D6 (unknown origin) incubated for 30 min in presence of NADPH by LC-MS/MS analysis; assay type: ADME
# Cytochrome P450 2D6, sequence (P10635 whole entry): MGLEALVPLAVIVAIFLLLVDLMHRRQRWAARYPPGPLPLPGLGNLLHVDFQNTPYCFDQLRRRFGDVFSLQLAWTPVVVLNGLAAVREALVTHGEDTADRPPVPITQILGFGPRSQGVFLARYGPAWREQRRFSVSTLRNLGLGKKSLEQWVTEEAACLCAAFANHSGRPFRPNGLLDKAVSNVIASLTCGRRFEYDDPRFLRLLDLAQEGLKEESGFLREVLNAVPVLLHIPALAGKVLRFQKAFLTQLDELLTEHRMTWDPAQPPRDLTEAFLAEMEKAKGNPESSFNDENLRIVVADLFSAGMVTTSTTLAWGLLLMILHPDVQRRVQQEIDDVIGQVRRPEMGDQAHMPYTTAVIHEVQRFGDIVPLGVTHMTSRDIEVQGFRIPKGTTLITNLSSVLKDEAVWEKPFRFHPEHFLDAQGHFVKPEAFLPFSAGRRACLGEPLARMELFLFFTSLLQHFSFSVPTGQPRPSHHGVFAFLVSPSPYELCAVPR
# Cytochrome P450 3A4 = Cytochrome P450 3A4 (Homo sapiens, UniProt P08684); assay: Inhibition of CYP3A4 (unknown origin) incubated for 30 min in presence of NADPH by LC-MS/MS analysis; assay type: ADME
# Cytochrome P450 3A4, sequence (P08684 whole entry): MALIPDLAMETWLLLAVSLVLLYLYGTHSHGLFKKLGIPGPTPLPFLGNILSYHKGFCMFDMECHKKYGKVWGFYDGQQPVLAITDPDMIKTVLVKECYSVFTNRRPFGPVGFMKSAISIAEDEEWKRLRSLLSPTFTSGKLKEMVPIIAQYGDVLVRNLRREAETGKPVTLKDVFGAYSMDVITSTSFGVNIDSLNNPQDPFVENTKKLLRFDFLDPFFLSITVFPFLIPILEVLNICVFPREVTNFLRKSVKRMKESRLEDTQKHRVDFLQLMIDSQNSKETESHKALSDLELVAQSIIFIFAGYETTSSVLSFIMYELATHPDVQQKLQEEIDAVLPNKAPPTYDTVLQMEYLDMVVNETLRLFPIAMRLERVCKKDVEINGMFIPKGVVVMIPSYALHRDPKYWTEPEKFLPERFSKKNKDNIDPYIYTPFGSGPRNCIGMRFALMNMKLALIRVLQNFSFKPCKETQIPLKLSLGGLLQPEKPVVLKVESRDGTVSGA
# Cytochrome P450 3A5 = Cytochrome P450 3A5 (Homo sapiens, UniProt P20815); assay: Inhibition of CYP3A5 (unknown origin) incubated for 30 min in presence of NADPH by LC-MS/MS analysis; assay type: ADME
# Cytochrome P450 3A5, sequence (P20815 whole entry): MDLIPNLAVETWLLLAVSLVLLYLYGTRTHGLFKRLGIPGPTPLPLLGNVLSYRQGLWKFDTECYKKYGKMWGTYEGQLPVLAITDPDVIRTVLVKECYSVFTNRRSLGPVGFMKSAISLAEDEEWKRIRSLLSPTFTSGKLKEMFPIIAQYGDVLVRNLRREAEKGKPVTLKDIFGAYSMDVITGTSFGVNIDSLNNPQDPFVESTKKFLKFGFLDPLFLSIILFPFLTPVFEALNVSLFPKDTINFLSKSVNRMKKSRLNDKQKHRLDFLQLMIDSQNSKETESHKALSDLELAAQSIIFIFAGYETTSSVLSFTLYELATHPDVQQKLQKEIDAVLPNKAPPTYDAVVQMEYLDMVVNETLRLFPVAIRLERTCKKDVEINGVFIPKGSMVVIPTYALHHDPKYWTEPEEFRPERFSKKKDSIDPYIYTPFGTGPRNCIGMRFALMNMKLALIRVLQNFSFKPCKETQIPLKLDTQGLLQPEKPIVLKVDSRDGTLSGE
# Mus musculus [22] = assay: Anti-diabetic activity against 16 hrs fasted ICR mouse assessed as reduced blood glucose level at 150 mg/kg, po measured after 30 to 90 min by oral pyruvate tolerance test; assay type: functional, organism-based; conditions: time 30-90 min
# Mus musculus [23] = assay: Anti-diabetic activity against 16 hrs fasted ICR mouse assessed as reduced blood glucose level at 150 mg/kg, po measured after 90 min by oral pyruvate tolerance test; assay type: functional, organism-based
smiles,measurement,setting,value
COc1ccc(S(=O)(=O)Nc2ccccc2-c2nc3ccccc3n2-c2ccc(Cl)cc2)cc1,inhibition,Homo sapiens,28.9%
COc1ccc(S(=O)(=O)Nc2ccccc2-c2nc3ccccc3n2-c2ccc(NC(C)=O)cc2)cc1,inhibition,Homo sapiens,36.8%
O=S(=O)(Nc1cccc(-c2nc3ccccc3n2C2CCCCC2)c1)c1ccc(Cl)cc1,inhibition,Homo sapiens,24.8%
Cn1c(-c2cccc(NS(=O)(=O)c3ccc(Cl)cc3)c2)nc2ccccc21,inhibition,Homo sapiens,0%
Cn1c(-c2cccc(C(=O)NS(=O)(=O)c3ccc(Cl)cc3)c2)nc2ccccc21,inhibition,Homo sapiens,4%
COc1ccc(S(=O)(=O)Nc2cccc(-c3nc4ccccc4n3C3CCCCC3)c2)cc1,inhibition,Homo sapiens,47.4%
CC(C)n1c(-c2cccc(NS(=O)(=O)c3ccc(Cl)cc3)c2)nc2ccccc21,inhibition,Homo sapiens,7.1%
Nc1ncnc2c1ncn2[C@@H]1O[C@H](COP(=O)(O)O)[C@@H](O)[C@H]1O [ADENOSINE PHOSPHATE],pIC50,[1],5.48
same,inhibition,Homo sapiens,81.3%
O=S(=O)(Nc1cccc(-c2nc3ccccc3[nH]2)c1)c1ccc(Cl)cc1,inhibition,Homo sapiens,0%
CC(=O)Nc1ccc(-n2c(-c3cccc(NS(=O)(=O)c4ccc(Cl)cc4)c3)nc3ccccc32)cc1,inhibition,Homo sapiens,21.1%
CC(C)=CCc1c(O)cc(O)c2c(=O)c(O)c(-c3ccc(O)c(O)c3)oc12,pIC50,[2],5.44
O=S(=O)(Nc1cccc(-c2nc3ccccc3n2Cc2ccc(Cl)cc2)c1)c1ccc(Cl)cc1,inhibition,Homo sapiens,16.2%
O=S(=O)(Nc1ccccc1-c1nc2ccccc2n1Cc1ccc(Cl)cc1)c1ccc(Cl)cc1,inhibition,Homo sapiens,10.2%
COc1ccc(S(=O)(=O)NC(=O)c2cc(Cl)cc(-c3nc4ccccc4[nH]3)c2)cc1,pIC50,[1],5.68
same,inhibition,Homo sapiens,81.8%
same,AUC(0-t),[3],15900 ng·h/mL
same,AUC(0-inf),[4],15900 ng·h/mL
same,MRT last,[5],1.86 h
same,MRT inf,[6],1.86 h
same,half-life,[7],1.79 h
same,Tmax,[8],1.98 min
same,Cmax,[9],33500 ng/mL
same,Vd,[10],0.813 L/kg
same,clearance,[11],5.27 mL/min/kg
same,AUC(0-t),[12],19500 ng·h/mL
same,AUC(0-inf),[13],19500 ng·h/mL
same,MRT last,[14],3 h
same,MRT inf,[15],3 h
same,half-life,[16],1.29 h
same,Tmax,[17],0.25 h
same,Cmax,[18],7160 ng/mL
same,Vz,[19],9.799 L/kg
same,CL/F,[20],87 mL/min/kg
same,bioavailability,[21],6.15%
same,pIC50,Cytochrome P450 1A2,4.33
same,pIC50,Cytochrome P450 2C9,5.88
same,pIC50,Cytochrome P450 2C19,< 4.30
same,pIC50,Cytochrome P450 2D6,4.43
same,pIC50,Cytochrome P450 3A4,4.70
same,pIC50,Cytochrome P450 3A5,4.70
same,Activity,Mus musculus [22],Active
O=C(NS(=O)(=O)c1ccc(Cl)cc1)c1cccc(-c2nc3ccccc3[nH]2)c1,inhibition,Homo sapiens,0%
O=S(=O)(Nc1ccccc1-c1nc2ccccc2n1-c1ccc(Cl)cc1)c1ccc(Cl)cc1,inhibition,Homo sapiens,28.9%
COc1ccc(S(=O)(=O)Nc2ccccc2-c2nc3ccccc3n2Cc2ccc(Cl)cc2)cc1,inhibition,Homo sapiens,5.6%
COc1ccccc1CNC(=O)N1C(=O)c2ccccc2S1(=O)=O,pIC50,[2],5.77
CC(=O)Nc1ccc(-n2c(-c3ccccc3NS(=O)(=O)c3ccc(Cl)cc3)nc3ccccc32)cc1,inhibition,Homo sapiens,25%
COc1ccc(S(=O)(=O)NC(=O)c2cccc(-c3nc4ccccc4n3C(C)C)c2)cc1,inhibition,Homo sapiens,0%
COc1ccc(S(=O)(=O)Nc2cc(Cl)cc(-c3nc4ccccc4[nH]3)c2)cc1,inhibition,Homo sapiens,18.2%
S=C(SSC(=S)n1cccc1)n1cccc1,pIC50,[2],6.89
COc1ccc(S(=O)(=O)Nc2ccccc2-c2nc3ccccc3n2C2CCCCC2)cc1,inhibition,Homo sapiens,17.3%
O=C(NS(=O)(=O)c1ccc(Cl)cc1)c1cc(Cl)cc(-c2nc3ccccc3[nH]2)c1,pIC50,[1],5.85
same,inhibition,Homo sapiens,88.3%
same,Activity,Mus musculus [23],Active
COc1ccc(S(=O)(=O)Nc2cccc(-c3nc4ccccc4n3-c3ccc(Cl)cc3)c2)cc1,pIC50,[1],5.27
same,inhibition,Homo sapiens,52.6%
O=S(=O)(Nc1ccccc1-c1nc2ccccc2n1C1CCCCC1)c1ccc(Cl)cc1,inhibition,Homo sapiens,39.8%
COc1ccc(S(=O)(=O)Nc2cccc(-c3nc4ccccc4n3Cc3ccc(Cl)cc3)c2)cc1,inhibition,Homo sapiens,7.1%
COc1ccc(S(=O)(=O)Nc2cccc(-c3nc4ccccc4n3-c3ccc(NC(C)=O)cc3)c2)cc1,inhibition,Homo sapiens,36.8%
COc1ccc(S(=O)(=O)NC(=O)c2cccc(-c3nc4ccccc4n3C)c2)cc1,inhibition,Homo sapiens,5.7%
CC(C)n1c(-c2cccc(C(=O)NS(=O)(=O)c3ccc(Cl)cc3)c2)nc2ccccc21,inhibition,Homo sapiens,0%
COc1ccc(S(=O)(=O)Nc2cccc(-c3nc4ccccc4[nH]3)c2)cc1,inhibition,Homo sapiens,0%
O=S(=O)(Nc1cc(Cl)cc(-c2nc3ccccc3[nH]2)c1)c1ccc(Cl)cc1,inhibition,Homo sapiens,5.4%
COc1ccc(S(=O)(=O)Nc2cccc(-c3nc4ccccc4n3C)c2)cc1,inhibition,Homo sapiens,5.7%
O=C(NS(=O)(=O)c1ccc(F)cc1)c1ccccc1N1CCN(Cc2nc3ccccc3n2C2CCCCC2)CC1,inhibition,Homo sapiens,64.3%
O=S(=O)(Nc1cccc(-c2nc3ccccc3n2-c2ccc(Cl)cc2)c1)c1ccc(Cl)cc1,pIC50,[1],5.09
same,inhibition,Homo sapiens,63.5%
O=C(NS(=O)(=O)c1ccc(F)cc1)c1cc(Cl)cc(-c2nc3ccccc3[nH]2)c1,pIC50,[1],5.67
same,inhibition,Homo sapiens,96.3%
same,Activity,Mus musculus [23],Active
O=c1cc(-c2ccccc2)oc2ccc3ccccc3c12 [BETA-NAPHTHOFLAVONE],pIC50,Cytochrome P450 1A2,6.83
COc1ccc(S(=O)(=O)Nc2cccc(-c3nc4ccccc4n3C(C)C)c2)cc1,inhibition,Homo sapiens,7.1%
COc1ccc(S(=O)(=O)NC(=O)c2cccc(-c3nc4ccccc4[nH]3)c2)cc1,inhibition,Homo sapiens,20.8%
